Assay results: PMC5365645, “Preclinical Pharmacokinetics and Pharmacodynamic Target of SCY-078, a First-in-Class Orally Active Antifungal Glucan Synthesis Inhibitor, in Murine Models of Disseminated Candidiasis” (Antimicrobial Agents and Chemotherapy, 2017)
Like-named read-outs stand apart in the source and are kept apart here. *1 amine or outer side, *2 acyl side, *3 side chain or, on linkers, in order; H or OH if unused. Where a SMILES comes first, the peptide text is derived from it. Bridges are numbered along the chain shown (N, C = ends). [ ]: non-standard residue; d: D form. The star is where a group is joined. hTyr(3S-OH,4S-OH,3'-OSO3H) = N[C@H](C(=O)O)[C@H](O)[C@@H](O)c1ccc(O)c(OS(=O)(=O)O)c1; pTerphenylCO(4''-OnC5H11) = CCCCCOc1ccc(-c2ccc(-c3ccc(C(=O)*)cc3)cc2)cc1; Orn(4R-OH,5R-OH) = O=C([C@H](C[C@@H](O)[C@@H](O)N[*:3])N[*:1])[*:2]; hTyr(3S-OH,4S-OH) = N[C@H](C(=O)O)[C@H](O)[C@@H](O)c1ccc(O)cc1; Pro(3S-OH,4S-Me) = C[C@H]1CN[C@H](C(=O)O)[C@H]1O; X1 = CCCCCOc1ccc(-c2cc(-c3ccc(C(=O)*)cc3)no2)cc1; Gln(3R-OH) = NC(=O)C[C@@H](O)[C@H](N)C(=O)O; Hyp = O=C(O)[C@@H]1C[C@@H](O)CN1

What was measured:
[1] = Volume of distribution after i.v. administration (literature); conditions: in vivo, iv, Rat, calculated using previously published data ref 17, read-out: Vd ss
From the text: TABLE 7 Volume of distribution for SCY-078 and echinocandins after i.v. administration | column: Vd ss (liters/kg)^a / Anidulafungin

[2] = Rabbit, cited from earlier work
[3] = Human, cited from earlier work
[4] = cited from earlier work
[5] = Mouse, cited from earlier work
[6] = system: C. albicans MY1055; assay: Immediate treatment murine model of disseminated candidiasis
[7] = Rat, i.v. ref 26; cited from earlier work
[8] = parameters: method as in ref 26 = [26]; 26. Yamato Y , Kaneko H , Hashimoto T , Katashima M , Ishibashi K , Kawamura A , Terakawa M , Kagayama A 2002 Pharmacokinetics of the anti-fungal drug micafungin in mice, rats and dogs, and its in vit; conditions: Dog, i.v. ref 26; cited from earlier work

CCCCCOc1ccc(-c2ccc(-c3ccc(C(=O)N[C@H]4C[C@@H](O)[C@@H](O)NC(=O)[C@@H]5[C@@H](O)[C@@H](C)CN5C(=O)[C@H]([C@@H](C)O)NC(=O)[C@H]([C@H](O)[C@@H](O)c5ccc(O)cc5)NC(=O)[C@@H]5C[C@@H](O)CN5C(=O)[C@H]([C@@H](C)O)NC4=O)cc3)cc2)cc1 [Anidulafungin, anidulafungin] ({pTerphenylCO(4''-OnC5H11)}-[Orn(4R-OH,5R-OH)]T[Hyp][hTyr(3S-OH,4S-OH)]T[Pro(3S-OH,4S-Me)]; lactam 1-C)
Vd [1]: 2.16 L/kg | Vd ss ([2]; i.v. ref 28): 0.93–1.23 ([28]) liters/kg | Vd ss ([3]; i.v. ref 31): 0.5 L/kg | Kidney/plasma ratio ([4]; after i.v. delivery to rodents ref 17): 10.7

CC[C@H](C)C[C@H](C)CCCCCCCCC(=O)N[C@H]1C[C@@H](O)[C@@H](NCCN)NC(=O)[C@@H]2[C@@H](O)CCN2C(=O)[C@H]([C@H](O)CCN)NC(=O)[C@H]([C@H](O)[C@@H](O)c2ccc(O)cc2)NC(=O)[C@@H]2C[C@@H](O)CN2C(=O)[C@H]([C@@H](C)O)NC1=O [Caspofungin, caspofungin]
Vd ss ([5]; i.v. ref 22): 0.25 L/kg | Vd ss ([5]; i.v. ref 25): 0.45 L/kg | Vd ss ([2]; i.v. ref 25): 0.28 L/kg | Vd ss ([2]; i.v. ref 29): 0.26 L/kg | Vd ss ([3]; i.v. ref 31): 0.14 ([31]) liters/kg | Kidney/plasma ratio ([4]; after i.v. delivery to rodents ref 22): approximately 2.9 | Kidney/plasma ratio ([4]; after i.v. delivery to rodents, based on the total radioactivity over 24 h ref 23): 2.8 | Dose effective in clearing kidney fungal burden ([6]; administered intraperitoneally twice daily (data not shown)): ≥ 0.125 mg/kg

OC(Cn1cncn1)(Cn1cncn1)c1ccc(F)cc1F [FLU, fluconazole, reference compound]
Clearance of fungal infection ([6]; up to 5 mg/kg p.o. BID): did not result in clearance of fungal infection in any of the animals tested

CCCCCOc1ccc(-c2cc(-c3ccc(C(=O)N[C@H]4C[C@@H](O)[C@@H](O)NC(=O)[C@@H]5[C@@H](O)[C@@H](C)CN5C(=O)[C@H]([C@H](O)CC(N)=O)NC(=O)[C@H]([C@H](O)[C@@H](O)c5ccc(O)c(OS(=O)(=O)O)c5)NC(=O)[C@@H]5C[C@@H](O)CN5C(=O)[C@H]([C@@H](C)O)NC4=O)cc3)no2)cc1 [Micafungin, micafungin] (X1-[Orn(4R-OH,5R-OH)]T[Hyp][hTyr(3S-OH,4S-OH,3'-OSO3H)][Gln(3R-OH)][Pro(3S-OH,4S-Me)]; lactam 1-C)
Vd ss ([5]; i.v. ref 26): 0.38–0.49 ([26]) liters/kg | Vd ss [7]: 0.42–0.56 ([26]) liters/kg | Vd ss [8]: 0.23–0.25 ([26]) liters/kg | Vd ss ([2]; i.v. ref 30): 0.313 ([30]) liters/kg | Vd ss ([3]; i.v. ref 31): 0.21 to 0.24 L/kg | Vd ss ([3]; i.v. ref 32): 0.26 L/kg | Kidney/plasma ratio ([4]; after i.v. delivery to rodents ref 24): 3.4
